{"source": "patent US20070287848A1", "about": "“Silicon Compound Containi-Electron Conjugated-System Molecule and Process for Producing the Same” (priority 2004, published 2007)", "key": {"Solubility in THF": {"assay": "Solubility in THF", "type": "physicochemical", "details": "in 1 ml of THF"}, "Solubility in toluene": {"assay": "Solubility in toluene", "type": "physicochemical", "details": "in 1 ml of toluene; for solubility relative to that of Th4-SiCl3: ratio to Th4-SiCl3"}}}
{"compound": "CCCCCCCCCCCCCCCCCCc1ccc(-c2ccc(-c3ccc([Si](Cl)(Cl)Cl)cc3)cc2)cc1", "note": "[C18-P3-SiCl3]", "values": [{"measurement": "solubility relative to that of P3-SiCl3", "setting": "Solubility in THF; ratio to P3-SiCl3", "result": "about 2.8 times"}]}
{"compound": "CCCCCCCCCCCCCCCCCCc1ccc(-c2ccc(-c3ccc(-c4ccc([Si](OCC)(OCC)OCC)s4)s3)s2)s1", "note": "[C18-Th4-Si(OC2H5)3]", "values": [{"measurement": "solubility relative to that of Th4-SiCl3", "setting": "Solubility in toluene", "result": "about 10 times"}]}
{"compound": "CCCCCCCCCCCCCCCCCCc1ccc(-c2ccc(-c3ccc(-c4ccc([Si](OC)(OC)OC)s4)s3)s2)s1", "note": "[C18-Th4-Si(OCH3)3]", "values": [{"measurement": "solubility relative to that of Th4-SiCl3", "setting": "Solubility in toluene", "result": "about 9.5 times"}]}
{"compound": "Cl[Si](Cl)(Cl)c1ccc(-c2ccc(-c3ccccc3)cc2)cc1", "note": "[P3-SiCl3, reference compound]", "values": [{"measurement": "solubility", "setting": "Solubility in THF", "result": "about 2.0 mg/ml"}]}
{"compound": "Cl[Si](Cl)(Cl)c1ccc(-c2ccc(-c3ccc(-c4cccs4)s3)s2)s1", "note": "[Th4-SiCl3, reference compound]", "values": [{"measurement": "solubility", "setting": "Solubility in toluene", "result": "about 1.0 mg/ml"}]}
